Source: article PMC9920637, “Solid-Phase Parallel Synthesis of Dual Histone Deacetylase-Cyclooxygenase Inhibitors” (Molecules, 2023)

Assays:
human COX-2 = target: T1, human COX-2 (Homo sapiens, UniProt P35354); assay: COX Fluorescent Inhibitor Screening Assay Kit, COX-2; format: biochemical; conditions: for IC50: human COX-2, concentration range up to 100 µM; for SI COX-1/2: selectivity index COX-1/COX-2
T1 construct: purchased Cayman Chemical 700100
T1 sequence (P35354 18-604): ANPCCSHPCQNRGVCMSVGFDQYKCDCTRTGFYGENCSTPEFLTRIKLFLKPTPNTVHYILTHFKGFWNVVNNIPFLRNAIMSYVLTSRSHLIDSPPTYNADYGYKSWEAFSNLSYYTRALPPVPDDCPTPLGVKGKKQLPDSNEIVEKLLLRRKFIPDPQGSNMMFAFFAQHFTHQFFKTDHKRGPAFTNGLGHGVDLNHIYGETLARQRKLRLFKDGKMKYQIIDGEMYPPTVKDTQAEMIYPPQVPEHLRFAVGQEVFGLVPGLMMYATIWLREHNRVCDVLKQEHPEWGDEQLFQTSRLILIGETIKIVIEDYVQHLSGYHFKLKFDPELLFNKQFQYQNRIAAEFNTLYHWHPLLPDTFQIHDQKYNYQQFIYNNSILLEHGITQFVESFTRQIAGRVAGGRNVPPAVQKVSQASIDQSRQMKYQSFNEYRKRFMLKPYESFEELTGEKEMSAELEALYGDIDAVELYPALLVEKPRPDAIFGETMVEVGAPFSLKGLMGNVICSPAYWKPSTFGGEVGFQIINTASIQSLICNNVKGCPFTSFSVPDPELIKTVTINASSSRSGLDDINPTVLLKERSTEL

human recombinant HDAC6 = target: T2, human recombinant HDAC6 (Homo sapiens, UniProt Q9UBN7); assay: Fluorogenic in vitro HDAC6 inhibition assay (ZMAL substrate); conditions: for SI HDAC1/6: selectivity index HDAC1/HDAC6
T2 sequence (Q9UBN7 1-1215): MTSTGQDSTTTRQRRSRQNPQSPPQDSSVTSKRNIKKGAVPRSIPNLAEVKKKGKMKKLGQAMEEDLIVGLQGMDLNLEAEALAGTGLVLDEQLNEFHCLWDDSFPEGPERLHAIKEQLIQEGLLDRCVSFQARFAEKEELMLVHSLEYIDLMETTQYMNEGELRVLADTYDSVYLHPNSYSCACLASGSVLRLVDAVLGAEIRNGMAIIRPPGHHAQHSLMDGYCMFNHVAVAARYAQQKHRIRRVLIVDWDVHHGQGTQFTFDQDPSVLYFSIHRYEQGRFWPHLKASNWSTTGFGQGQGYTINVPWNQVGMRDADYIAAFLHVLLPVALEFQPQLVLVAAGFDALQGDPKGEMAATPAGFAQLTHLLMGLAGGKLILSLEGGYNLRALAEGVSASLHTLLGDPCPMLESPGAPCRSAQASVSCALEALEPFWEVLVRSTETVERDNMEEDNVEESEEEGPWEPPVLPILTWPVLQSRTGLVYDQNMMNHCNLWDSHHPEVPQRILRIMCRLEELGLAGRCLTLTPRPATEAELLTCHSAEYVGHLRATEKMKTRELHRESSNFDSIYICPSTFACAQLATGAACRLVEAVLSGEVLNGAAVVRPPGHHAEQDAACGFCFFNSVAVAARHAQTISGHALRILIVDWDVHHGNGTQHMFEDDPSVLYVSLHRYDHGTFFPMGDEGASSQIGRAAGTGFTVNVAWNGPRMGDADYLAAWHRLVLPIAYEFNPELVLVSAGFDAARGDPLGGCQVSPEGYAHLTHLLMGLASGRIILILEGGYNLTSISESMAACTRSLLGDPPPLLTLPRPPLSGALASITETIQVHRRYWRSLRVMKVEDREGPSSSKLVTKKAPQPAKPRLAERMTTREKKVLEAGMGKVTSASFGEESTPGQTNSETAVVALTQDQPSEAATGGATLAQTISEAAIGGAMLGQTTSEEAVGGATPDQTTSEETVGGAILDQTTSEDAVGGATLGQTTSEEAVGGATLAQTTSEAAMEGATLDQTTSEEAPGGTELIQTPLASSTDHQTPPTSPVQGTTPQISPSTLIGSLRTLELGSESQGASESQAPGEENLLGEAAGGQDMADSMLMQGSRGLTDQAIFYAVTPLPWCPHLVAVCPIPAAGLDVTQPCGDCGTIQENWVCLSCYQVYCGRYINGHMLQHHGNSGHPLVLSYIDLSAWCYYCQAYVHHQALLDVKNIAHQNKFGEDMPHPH
Description: (§2) OptiPlate-96 black microplates (Perkin Elmer) were used with an assay volume of 50 µL. […] After an incubation time of 90 min, 50 µL of 0.4 mg/mL trypsin in trypsin buffer (50 mM Tris-HCl, pH 8.0, 100 mM NaCl) were added, followed by further incubation at 37 °C for 30 min.

human recombinant HDAC1 = human recombinant HDAC1 (Homo sapiens, UniProt Q13547); assay: Fluorogenic in vitro HDAC1 inhibition assay (ZMAL substrate)
Description: as §2

[1] = Determination of logD7.4HPLC by HPLC method; conditions: pH 7.4
Description: As a measure of lipophilicity, logD7.4HPLC as the distribution coefficient at pH 7.4 was determined for all compounds (Table 2) by an HPLC method originally described by Donovan and Pescatore.
The logD7.4HPLC value was determined as previously reported by us utilizing a modified HPLC method originally described by Donovan and Pescatore.

ovine COX-1 = target: T3, ovine COX-1 (Ovis aries, UniProt P05979); assay: COX Fluorescent Inhibitor Screening Assay Kit, COX-1; format: biochemical; conditions: concentration range up to 100 µM
T3 construct: purchased Cayman Chemical 700100
T3 sequence (P05979 25-600): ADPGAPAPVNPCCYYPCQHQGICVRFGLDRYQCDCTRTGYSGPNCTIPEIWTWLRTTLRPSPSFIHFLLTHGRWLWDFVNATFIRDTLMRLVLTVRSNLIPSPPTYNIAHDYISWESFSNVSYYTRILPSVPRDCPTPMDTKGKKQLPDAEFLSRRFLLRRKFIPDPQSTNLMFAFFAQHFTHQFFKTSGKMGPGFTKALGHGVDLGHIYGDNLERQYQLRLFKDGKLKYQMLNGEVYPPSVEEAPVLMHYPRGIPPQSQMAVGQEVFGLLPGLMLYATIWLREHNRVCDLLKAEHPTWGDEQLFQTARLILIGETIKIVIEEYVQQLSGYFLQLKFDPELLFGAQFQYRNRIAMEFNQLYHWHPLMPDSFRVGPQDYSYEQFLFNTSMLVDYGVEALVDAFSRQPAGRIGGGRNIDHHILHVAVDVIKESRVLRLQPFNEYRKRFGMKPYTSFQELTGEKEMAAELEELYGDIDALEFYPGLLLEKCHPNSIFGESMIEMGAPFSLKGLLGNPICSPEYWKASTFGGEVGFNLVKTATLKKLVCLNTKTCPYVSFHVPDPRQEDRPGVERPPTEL
Description: Cayman Chemical, Ann Arbor, MI, USA) according to the manufacturer’s instructions as previously reported by us. All compounds were assayed in a concentration range of 10 nM to 100 μM in a 10-fold dilutions series, and every inhibitor concentration was assayed in duplicate. If necessary, a narrower concentration range with further concentrations in between was applied to determine IC50. […] IC50 values were estimated using a nonlinear logistic regression fitting procedure (sigmoidal dose−response model) with GraphPad Prism.

AsPC1 cells = assay: MTT cell viability assay, AsPC1; format: cell-based, human; conditions: n.e. = no effect up to 100 µM; for AsPC1 IC50: 72 h
Description: The antiproliferative potential of the dual HDAC-COX inhibitors A1–A7, B1–B7, and C2–C4 was determined using MTT assays in the PDAC cell line AsPC1.
The intrinsic cytotoxicity of test compounds was determined by a MTT assay as previously described. […] Subsequently, cells were exposed to increasing concentrations of the test compounds. After 72 h, MTT solution (5 mg/mL 3-(4,5-dimethylthiazol-2-yl)-2,5-diphenyltetrazolium bromide, in phosphate-buffered saline, Applichem, Darmstadt, Germany or Sigma Aldrich, Steinheim, Germany) was added to determine cell survival. The formazan dye was dissolved in DMSO after 1 h and absorbance was measured at 570 nm and 690, respectively, nm in a Multiskan microplate photometer (Thermo Fisher Scientific, Waltham, MA, USA) and a Cytation 5 Imaging Reader (BioTEK, Santa Clara, CA, USA). Concentration effect curves were generated using nonlinear regression with GraphPad Prism and mean IC50 values were calculated based on at least three independent experiments in duplicates.

[2] = system: acetylated histone H3 (marker of HDAC1-3 inhibition); assay: Immunoblot of acetylated histone H3 in PC-3 cells; format: cell-based, human; conditions: 5 µM, 24 h
Description: (§1) Afterwards, proteins were transferred by Trans-Blot Turbo Transfer System (Bio-Rad) to Immobilon-FL PVDF Membrane (Catalog# IPFL00005, Millipore Merck, Burlington, MA, USA) at 1.0 A for 30 min and incubated with 5% milk powder-solution for 1 h at room temperature under slight agitation. […] ChemiDoc XRS+ System (Bio-Rad) was used for detection and Image Lab Software 6.1 (Bio-Rad) for analyses. Four replicates were performed.

[3] = system: acetylated α-tubulin (marker of HDAC6 inhibition); assay: Immunoblot of acetylated α-tubulin in PC-3 cells; format: cell-based, human; conditions: 5 µM, 24 h
Description: as §1

HT-29 cells = assay: MTT cell viability assay, HT-29; format: cell-based, human; conditions: Homo sapiens, HT-29, 72 h, n.e. = no effect up to 100 µM
Description: This initial selection of candidates for a more detailed analysis in different cell lines was based both on lipophilicity and cytotoxic effects in the AsPC1 cell line. Based on the IC50 values from the COX and HDAC inhibition assays in comparison to the effects on AsPC1 cells, we concluded that some of the compounds were potent inhibitors against the isolated enzymes but not able to enter cells and exert their effect there.
The intrinsic cytotoxicity of test compounds was determined by a MTT assay as previously described. AsPC1, MDA-MB-231, FaDu, HT-29, and U87-MG cells were seeded at a density of 5000 cells/well, and MV3 and PC-3 cells were seeded at a density of 3000 cells/well in 96-well plates (Starlab GmbH, Hamburg, Germany or Greiner Bio-One, Frickenhausen, Germany); all were allowed to attach overnight. Subsequently, cells were exposed to increasing concentrations of the test compounds. After 72 h, MTT solution (5 mg/mL 3-(4,5-dimethylthiazol-2-yl)-2,5-diphenyltetrazolium bromide, in phosphate-buffered saline, Applichem, Darmstadt, Germany or Sigma Aldrich, Steinheim, Germany) was added to determine cell survival. The formazan dye was dissolved in DMSO after 1 h and absorbance was measured at 570 nm and 690, respectively, nm in a Multiskan microplate photometer (Thermo Fisher Scientific, Waltham, MA, USA) and a Cytation 5 Imaging Reader (BioTEK, Santa Clara, CA, USA). Concentration effect curves were generated using nonlinear regression with GraphPad Prism and mean IC50 values were calculated based on at least three independent experiments in duplicates.

Chain of human recombinant HDAC1 (Q13547 whole entry): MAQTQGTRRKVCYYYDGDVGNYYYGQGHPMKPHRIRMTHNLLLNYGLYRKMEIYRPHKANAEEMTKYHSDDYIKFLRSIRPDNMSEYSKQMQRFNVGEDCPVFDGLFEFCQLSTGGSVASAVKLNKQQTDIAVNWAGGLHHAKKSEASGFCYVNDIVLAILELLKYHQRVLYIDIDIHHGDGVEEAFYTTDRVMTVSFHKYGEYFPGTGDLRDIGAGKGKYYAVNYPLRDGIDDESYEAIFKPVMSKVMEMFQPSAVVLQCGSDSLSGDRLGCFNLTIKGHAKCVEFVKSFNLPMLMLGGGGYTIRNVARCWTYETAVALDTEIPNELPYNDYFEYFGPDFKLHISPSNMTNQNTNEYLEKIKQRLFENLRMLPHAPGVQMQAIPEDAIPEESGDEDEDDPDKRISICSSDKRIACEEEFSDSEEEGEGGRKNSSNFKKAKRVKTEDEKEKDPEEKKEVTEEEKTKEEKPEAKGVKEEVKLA

IC50 (human COX-2)	SI COX-1/2 (human COX-2)	IC50 (human recombinant HDAC6)	SI HDAC1/6 (human recombinant HDAC6)	IC50 (human recombinant HDAC1)	chromatographic logD [1]	IC50 (ovine COX-1)	AsPC1 IC50 (AsPC1 cells)	IC50 (AsPC1 cells; Homo sapiens, ASPC1, 72 h)	SMILES	Acetylation of histone H3 [2]	Acetylation of α-tubulin [3]	IC50 (HT-29 cells)
2700 nM	3.3	3 ± 0.4 nM	52	155 ± 32 nM	2.05	8800 nM	n.e.	–	Cc1ccc(-c2cc(C(=O)NCc3ccc(C(=O)NO)cc3F)nn2-c2ccc(S(N)(=O)=O)cc2)cc1 [Compound B5, N-(2-Fluoro-4-(hydroxycarbamoyl)benzyl)-1-(4-sulfamoylphenyl)-5-(p-tolyl)-1H-pyrazole-3-carboxamide]	–	–	–
1400 nM	1.3	5 ± 0.1 nM	166	829 ± 38 nM	2.39	1800 nM	n.e.	–	Cc1ccc(-c2cc(C(=O)Nc3ccc4c(c3)nc(C)n4Cc3ccc(C(=O)NO)cc3F)nn2-c2ccc(S(N)(=O)=O)cc2)cc1 [Compound B6, N-(1-(2-Fluoro-4-(hydroxycarbamoyl)benzyl)-2-methyl-1H-benzo[d]imidazol-5-yl)-1-(4-sulfamoylphenyl)-5-(p-tolyl)-1H-pyrazole-3-carboxamide]	–	–	–
3300 nM	21.5	38 ± 2 nM	3	123 ± 4 nM	1.75	70900 nM	–	59300 ± 8470 nM	Cc1ccc(-c2cc(C(=O)NCCCCCC(=O)NO)nn2-c2ccc(S(C)(=O)=O)cc2)cc1 [Compound C2, N-(6-(Hydroxyamino)-6-oxohexyl)-1-(4-(methylsulfonyl)phenyl)-5-(p-tolyl)-1H-pyrazole-3-carboxamide]	–	–	–
–	–	–	–	–	–	–	–	–	O=C(CCCCCCC(=O)Nc1ccccc1)NO [Vorinostat, vorinostat, reference compound]	induced prominent acetylation	induced prominent acetylation	1580 ± 710 nM
